# Reference: ChEMBL document CHEMBL3421553, “Design, synthesis, and biological evaluation of benzoselenazole-stilbene hybrids as multi-target-directed anti-cancer agents” (Eur J Med Chem, 2015)
# Key:
# [1] = Antiproliferative activity against human Bel7402 cells assessed as cell viability after 48 hrs by MTT assay; assay type: functional, cell-based; conditions: Bel-7402, 48 h
# A549 = assay: Antiproliferative activity against human A549 cells assessed as cell viability after 48 hrs by MTT assay; assay type: functional, cell-based; conditions: A549, 48 h
# HeLa = assay: Antiproliferative activity against human HeLa cells assessed as cell viability after 48 hrs by MTT assay; assay type: functional, cell-based
# MCF7 = assay: Antiproliferative activity against human MCF7 cells assessed as cell viability after 48 hrs by MTT assay; assay type: functional, cell-based; conditions: MCF7, 48 h
# [2] = Aqueous solubility of the compound in phosphate buffer at pH 7.4; assay type: physicochemical
# [3] = Inhibition of rat liver TrxR assessed as increase in absorbance by DTNB assay
# Rattus norvegicus [4] = species on record: Rattus norvegicus; assay: Inhibition of rat liver TrxR assessed as increase in absorbance at 10 uM by DTNB assay
# Rattus norvegicus [5] = species on record: Rattus norvegicus; assay: Inhibition of rat liver TrxR assessed as increase in absorbance at 50 uM by DTNB assay
# [6] = Cell cycle arrest in human Bel7402 cells assessed as cells accumulation at Sub-G1 phase at 50 uM after 48 hrs by flow cytometry (reference value: 1.47%); assay type: functional, cell-based; conditions: Bel-7402
# [7] = Cell cycle arrest in human Bel7402 cells assessed as cells accumulation at G1 phase at 50 uM after 48 hrs by flow cytometry (reference value: 62.60%); assay type: functional, cell-based; conditions: Bel-7402
# [8] = Cell cycle arrest in human Bel7402 cells assessed as cells accumulation at S phase at 50 uM after 48 hrs by flow cytometry (reference value: 13.99%); assay type: functional, cell-based; conditions: Bel-7402
# [9] = Cell cycle arrest in human Bel7402 cells assessed as cells accumulation at G2/M phase at 50 uM after 48 hrs by flow cytometry (reference value: 16.61%); assay type: functional, cell-based; conditions: Bel-7402
# Bel-7402 [10] = assay: Induction of apoptosis in human Bel7402 cells assessed as detection error cells at 50 uM after 48 hrs by flow cytometry (reference value: 0.43%); assay type: functional
# Bel-7402 [11] = assay: Induction of apoptosis in human Bel7402 cells assessed as necrotic cells at 50 uM after 48 hrs by flow cytometry (reference value: 0.19%); assay type: functional
# Bel-7402 [12] = assay: Induction of apoptosis in human Bel7402 cells assessed as apoptotic cells at 50 uM after 48 hrs by flow cytometry (reference value: 0.73%); assay type: functional
# Bel-7402 [13] = assay: Induction of apoptosis in human Bel7402 cells assessed as live cells at 50 uM after 48 hrs by flow cytometry (reference value: 98.65%); assay type: functional
SMILES,IC50 [1],IC50 (A549),IC50 (HeLa),IC50 (MCF7),solubility [2],IC50 [3],inhibition (Rattus norvegicus [4]),inhibition (Rattus norvegicus [5]),Activity [6],Activity [7],Activity [8],Activity [9],Activity (Bel-7402 [10]),Activity (Bel-7402 [11]),Activity (Bel-7402 [12]),Activity (Bel-7402 [13])
COc1cc(/C=C/c2ccc(-n3[se]c4ccccc4c3=O)cc2)cc(OC)c1,3.49 µM,3.73 µM,3.8 µM,7.78 µM,> 100 µM,8.27 µM,,,,,,,,,,
COc1cc(/C=C/c2ccc(-n3[se]c4ccc(Cl)cc4c3=O)cc2)cc(OC)c1,,,,,< 50 µM,,31.2%,,,,,,,,,
COc1cc(/C=C/c2ccc(-n3[se]c4cc(Cl)ccc4c3=O)cc2)cc(OC)c1,0.79 µM,0.52 µM,0.23 µM,0.47 µM,< 10 µM,,36.4%,,,,,,,,,
Oc1ccc(/C=C/c2cc(O)cc(O)c2)cc1 [RESVERATROL],50.7 µM,> 100 µM,47.9 µM,> 100 µM,,,,26.1%,0.15%,59%,9.83%,31.2%,0.03%,0.01%,13.2%,85.3%
COc1ccc(/C=C/c2ccc(-n3[se]c4ccc(Cl)cc4c3=O)cc2)cc1OC,6.13 µM,6.95 µM,12 µM,16.9 µM,< 20 µM,,38.4%,,,,,,,,,
O=c1c2ccccc2[se]n1-c1ccccc1 [EBSELEN],68.2 µM,> 100 µM,78.5 µM,> 100 µM,,8.54 µM,,,3.32%,58.7%,11.2%,21.2%,0.56%,0.72%,7.94%,90.8%
COc1cc(/C=C/c2ccc(-n3[se]c4cc(F)ccc4c3=O)cc2)cc(OC)c1,0.99 µM,1.22 µM,0.64 µM,0.51 µM,< 10 µM,,36.6%,,,,,,,,,
